This is an account of results in US20050019746A1, “Apoptosis-related kinase/GPCRs” (EiRx Therapeutics Limited, priority 2003, published 2005).

Common to all, as to format: cell-based, human
In data set [1] the test system is A549 cells. Description: 10-14 day Clonagenicity Assay (MTT), A549. As to conditions: for percentage survival relative to the missense, n = 1: independent experiment n = 1, dilution point of maximum toxicity; for percentage survival relative to the missense, n = 2: independent experiment n = 2, dilution point of maximum toxicity; for percentage survival relative to the missense, n = 3: independent experiment n = 3, dilution point of maximum toxicity. The method, boiled down:
(§1)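 Extended-growth viability screen: siRNA transfected at 2 μg/ml into six serially diluted seed densities, quantified by MTT at 10-14 days. Hits needed significant loss versus missense (non-overlapping standard error bars) across two densities; maximum-toxicity point reported as mean % viability.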

Data set [2] has as its system target gene mRNA in TF1 cells. Description: Knockdown by RNAi, QPCR, TF1 cells. As to conditions: 48 hrs post transfection, relative to missense control; for % Knockdown by RNAi, TF1 − GMCSF: TF1 without GM-CSF; for % Knockdown by RNAi, TF1 + GMCSF: TF1 with GM-CSF. The method, then: In the case of TF1 cells, 2×10^5 cells/ well are transfected with 2 μg of siRNA in each well of a 24 well plate using […] DMRIE-C reagent (InVitrogen) per ml of Optimem (Gibco). Cells are simultaneously transfected in parallel with a control missense siRNA. Recombinant GM-CSF at 2 ng/ml is added to the OPTI-MEM media during transfection. The transfection media is replaced after four hours with fresh RPMI 1640 containing […] GMSCF and 10% FCS and incubated at 37° C. Twenty-four hours post-transfection, the media are changed; RPMI 1640+10% FCS containing […] GMSCF is added to 3 wells and RPMI 1640+10% FCS without GMSCF is added to the other 3 wells. These cells are harvested 48 and 72 hours post transfection for QPCR and phenotypic assays. Control TF1 cells, which are not transfected, are similarly treated. Samples are labeled T48+G, T48−G, according to the time of harvesting post-transfection and the presence (+G) or absence (−G) of GM-CSF in the media. RNA is isolated, cDNA is reverse transcribed and QPCR is performed as described above. Short Term (72 hrs post transfection) Cell Viability/Apoptosis assays employed are discussed below.
After DMRIE transfections with siRNA Oligos against the apoptosis associated genes identified herein, or controls, cells are harvested at 24 or 48 hours post transfection as stated previously. RNA is then extracted using RNeasy Miniprep columns (Qiagen 74104) after lysis on KIAshredder columns (Qiagen 79654). RNA is quantified by spectrophotometric analysis and 1 μg is reverse transcribed into cDNA using SuperScriptII RNAseH-Reverse Transcriptase (Invitrogen 18064-014). The levels of transcript are compared by QPCR as described in detail in Example 3, relative to missense controls. QPCR primers are designed to amplify a PCR product of approximately 100 to 300 nucleotides in length from the CDS, following the guidelines outlined in the Quantitect SYBR Green PCR handbook from Qiagen.
Two template standards are used for quantitative PCR assessment of mRNA levels: • 1. A control RPS13 i.e. Ribosomal Protein Sub unit 13 (NM_001017) amplified PCR product diluted to [1000,100,10,1 and 0.1 fg] respectively, used to quantify the level of transcript; • 2. RPS13 amplified from sample templates as separate PCR reactions for normalisation purposes.
The cDNA templates from appropriate cell lines transfected with either gene specific, positive control e.g. Survivin or missense control siRNA are amplified with gene-specific QPCR primers using QuantiTectSYBR Green PCR kit (Qiagen 204143) on a DNA Engine Opticon System (MJ Research) (as described in detail in Example 3). The amplification conditions include a 95° C. step for 15 min for initial activation of HotStarTaq DNA polymerase, followed by 35 cycles of (15 s at 94° C., 30 s at 60° C., 30 s at 72°). The fluorescence of the samples at 521 nm is read between the annealing and extension steps of the protocol. The melting curves are calculated at the end of the 35 cycles and confirm product homogeneity.
A standard curve is plotted using the log [template quantity] of the RPS 13 control template dilutions (as above) versus cycle number at which the fluorescence intensity measured in the well exceeds the level specified in the cycle threshold parameters (the C(T) value). An estimate of the quantity of initial template in treatment samples is determined from this plot and the amount of target mRNA present in each sample is normalized across samples by calculating the ratio of target to RPS13 for each sample.
The normalised expression values are used to estimate percentage knockdown of target with reference to the control, transfected, cells (in this case cells transfected with missense siRNA).

In data set [3] the test system is HCT15 cells. Description: 10-14 day Clonagenicity Assay (MTT), HCT15. As to conditions: for percentage survival relative to the missense, n = 1: independent experiment n = 1, dilution point of maximum toxicity; for percentage survival relative to the missense, n = 2: independent experiment n = 2, dilution point of maximum toxicity. The method, boiled down:
as §1

For data set [4], the system named is PC3 cells. As to the kind of experiment: 10-14 day Clonagenicity Assay (MTT), PC3. The conditions noted are these: for percentage survival relative to the missense, n = 1: independent experiment n = 1, dilution point of maximum toxicity; for percentage survival relative to the missense, n = 3: independent experiment n = 3, dilution point of maximum toxicity. Summed up: as §1

Take “siRNA MAPKK5: sense GAGGACAGGUUAAGCUGUGtt, antisense CACAGCUUAACCUGUCCUCtt (sense GAGGACAGGUUAAGCUGUGTT; antisense CACAGCUUAACCUGUCCUCTT; chemistry not given here)”: the “percentage survival relative to the missense, n = 1” value in data set [1] worked out at 48.5%. For the same substance, the “% Knockdown by RNAi, TF1 − GMCSF” value in data set [2] turned out to be 70%. Besides, in data set [3], the “percentage survival relative to the missense, n = 1” value came out at 65.3% and the “percentage survival relative to the missense, n = 2” value is reported as 61.2%. Besides, in data set [4], the “percentage survival relative to the missense, n = 1” value is 30.5% and the “percentage survival relative to the missense, n = 3” value is listed as 8.3%.
In the case of “siRNA EKI: siRNA duplex, sense GCACUGGAUCCAAAGCAUGtt, antisense CAUGCUUUGGAUCCAGUGCtt; same in Tables 9 and 11 (sense GCACUGGAUCCAAAGCAUGTT; antisense CAUGCUUUGGAUCCAGUGCTT; chemistry not given here)”, in data set [1], the “percentage survival relative to the missense, n = 1” value stood at 27.1%; the “percentage survival relative to the missense, n = 2” value came out at 30.9%; the “percentage survival relative to the missense, n = 3” value worked out at 49.1%. For the same substance, in data set [2], the “% Knockdown by RNAi, TF1 + GMCSF” value was 46% and the “% Knockdown by RNAi, TF1 − GMCSF” value was 58%. In addition, in data set [3], the “percentage survival relative to the missense, n = 1” value is reported as 63.5% and the “percentage survival relative to the missense, n = 2” value is listed as 60.6%. In data set [4], the “percentage survival relative to the missense, n = 1” value was 62% and the “percentage survival relative to the missense, n = 3” value was 39.7%. The “percentage survival relative to the missense, n = 2” value in data set [4] (independent experiment n = 2, dilution point of maximum toxicity) is listed as 40.4%.
“siRNA Survivin: positive control siRNA, sense GAACUGGCCCUUCUUGGAGtt, antisense CUCCAAGAAGGGCCAGUUCtt (sense GAACUGGCCCUUCUUGGAGTT; antisense CUCCAAGAAGGGCCAGUUCTT; chemistry not given here) [reference compound]”: in data set [1], the “percentage survival relative to the missense, n = 1” value was 28.5%; the “percentage survival relative to the missense, n = 2” value stood at 62.4%; the “percentage survival relative to the missense, n = 3” value worked out at 67.3%. In addition, the “% Knockdown by RNAi, TF1 + GMCSF” value in data set [2] was 20%. Moreover, in data set [3], the “percentage survival relative to the missense, n = 1” value stood at 71.3% and the “percentage survival relative to the missense, n = 2” value was 44.5%. Further, in data set [4], the “percentage survival relative to the missense, n = 1” value was found to be 39.2% and the “percentage survival relative to the missense, n = 3” value worked out at 83.6%.
